Assay results from patent US20020010201A1 (priority 1999, published 2002).

Experiments:
[1] = system: Restless Legs Syndrome patients; conditions: cited from earlier work; for effectiveness in RLS: short-term therapy trials of dopamine agonists
[2] = system: patients with RLS; assay: Treatment of 2 patients with RLS (therapeutic history, monotherapies and combination therapy of pramipexole and clonidine)
Procedure: 1. […] The clonidine was also initially prescribed in a single dose of 0.075 mg two hours before bedtime and increased by 0.075 mg at intervals of 3 days.
2. Treatment with a Combination Therapy of Clonidine and Pramipexole After slowly bringing the clonidine therapy to a complete halt and after a treatment-free period of about 1 week, both patients were treated with a combination of 0.088 mg of pramipexole and 0.075 mg of clonidine. […] After 7 days the dosage of pramipexole had been increased to 0.18 mg and the dosage of clonidine to 0.15 mg, two hours before going to sleep.

[3] = clonidine monotherapy, single dose before bedtime, 0.225 mg (male) / 0.45 mg (female)

CCCN(CCC)CCc1cccc2c1CC(=O)N2 [ropinirol]
effectiveness in RLS [1]: found to be effective

CCCN1C[C@H](CSC)C[C@@H]2c3cccc4[nH]cc(c34)C[C@H]21 [pergolide]
effectiveness in RLS [1]: found to be effective
side effects preventing further dose increase ([2]; previous therapy of the 2 RLS patients): side effects such as nausea, gastrointestinal problems and dizziness

bromocryptine
effectiveness in RLS [1]: found to be effective

CCCN[C@H]1CCc2nc(N)sc2C1 [pramipexole, (S)-2-amino-6-n-propylamino-4,5,6,7-tetrahydro-benzothiazole]
effectiveness in RLS [1]: found to be effective
symptoms ([2]; pramipexole monotherapy, 0.088 mg two hours before bedtime, increased to 0.36 mg (male) / 0.27 mg (female) daily, no difference from earlier therapy): symptoms certainly improved

N[C@@H](Cc1ccc(O)c(O)c1)C(=O)O [L-DOPA]
disadvantage of therapy (loss of effectiveness, rebound, augmentation) ([1]; in vivo): effectiveness declines and/or there is a shift of the RLS problems to the morning (rebound) or afternoon (augmentation)
alleviation of the complaint ([1]; long-term therapy, with improvement in quality of life and sleep): significant alleviation of the complaint
augmentation ([2]; human, in vivo): typical augmentation during the day

CC(C)C[C@H]1C(=O)N2CCC[C@H]2[C@]2(O)O[C@](NC(=O)[C@@H]3C[C@@H]4c5cccc6[nH]cc(c56)C[C@H]4N(C)C3)(C(C)C)C(=O)N12 [alphadihydroergocryptine]
effectiveness in RLS [1]: found to be effective

Clc1cccc(Cl)c1NC1=NCCN1 [clonidine, 2-(2,6-dichloroanilino)-4,5-dihydroimidazole]
perceived symptoms such as paresthesia, compulsive movement and tiredness during the day ([1]; 4 open trials, 2 double-blind placebo-controlled trials, single case study, daily doses 0.1-0.9 mg): (statistically significant) reduction in perceived symptoms
sleep latency (polysomnographic) ([1]; daily doses 0.1-0.9 mg): shortened
quality of sleep, frequency of waking or periodic leg movements in sleep (PLMS) ([1]; polysomnographic, daily doses 0.1-0.9 mg): not affected
compulsive movements [2, 3]: had also improved
paresthesia [2, 3]: felt hardly any paresthesia
quality of sleep and number of times they woke during the night [2, 3]: had not changed

Cc1nnc2n1-c1sc(Br)cc1C(c1ccccc1Cl)=NC2 [Brotizolam]
falling asleep and sleeping through ([2]; previous therapy, prescribed for limited time only): improved the falling asleep and sleeping through

C=CCN1C[C@H](C(=O)N(CCCN(C)C)C(=O)NCC)C[C@@H]2c3cccc4[nH]cc(c34)C[C@H]21 [cabergoline]
effectiveness in RLS [1]: found to be effective

NC(=O)N1c2ccccc2C=Cc2ccccc21 [Carbamazepine]
relief from the complaint ([1]; a few partly open trials): only partial relief from the complaint

CCN(CC)C(=O)N[C@H]1C=C2c3cccc4[nH]cc(c34)C[C@H]2N(C)C1 [lisuride]
effectiveness in RLS [1]: found to be effective
